These results are taken from the Biogen ADME set (Fang et al. 2023).

The conditions of the series: for aqueous solubility: pH 6.8.

One may read the aqueous solubility as how much of the substance goes into solution per volume. A lower aqueous solubility goes with a poorly soluble substance.

≈ marks a conversion by molar mass, not a printed value. Where only a bound is given, the exact number is not on record here.

`CN1CCc2nc(NC(=O)c3cncn3-c3ccccc3)sc2C1`: the MDR1-MDCK efflux ratio worked out at 20.3; the intrinsic clearance, human liver microsomes is 5.11 mL/min/kg; the intrinsic clearance, rat liver microsomes came out at 63.6 mL/min/kg; the aqueous solubility stood at 43.4 µg/mL (≈ 128 µM).

As for `CN(Cc1nc2c(s1)CCCC2)c1cnccn1`, the MDR1-MDCK efflux ratio was found to be 0.576; the intrinsic clearance, human liver microsomes was 131 mL/min/kg; the intrinsic clearance, rat liver microsomes came to 1280 mL/min/kg.

Molecule `CN1C(=O)c2ccc(C(=O)N(CC3CCCCC3)C3CC3)cc2C1=O` had an intrinsic clearance, human liver microsomes of 123 mL/min/kg and an intrinsic clearance, rat liver microsomes of 2600 mL/min/kg.

For `Cc1nn(Cc2csc(-c3cccs3)n2)c(N)c1C#N`, the MDR1-MDCK efflux ratio stood at 0.689; the intrinsic clearance, human liver microsomes was found to be 19.2 mL/min/kg; the intrinsic clearance, rat liver microsomes was determined as 388 mL/min/kg; the aqueous solubility was 39.6 µg/mL (≈ 131 µM).

Consider `O=C1CNC(=O)N1CCCN1CCc2sccc2C1`, for which the MDR1-MDCK efflux ratio turned out to be 1.52; the intrinsic clearance, human liver microsomes is at most 4.74 mL/min/kg; the intrinsic clearance, rat liver microsomes was 28.6 mL/min/kg; the aqueous solubility came to 51.2 µg/mL (≈ 183 µM).

Take `O=C(Cc1ccc(Cl)c(Cl)c1)N1CC(n2ccnn2)C1`: the MDR1-MDCK efflux ratio turned out to be 2.09; the intrinsic clearance, human liver microsomes is at most 4.74 mL/min/kg; the intrinsic clearance, rat liver microsomes is 51.8 mL/min/kg; the aqueous solubility was determined as 31 µg/mL (≈ 99.7 µM).

For the molecule `COc1ccc(C)cc1-n1ccc(C(=O)NC(C)C)n1`, the MDR1-MDCK efflux ratio is 0.545; the intrinsic clearance, human liver microsomes amounted to 62.5 mL/min/kg; the intrinsic clearance, rat liver microsomes turned out to be 334 mL/min/kg; the aqueous solubility came to 35.7 µg/mL (≈ 131 µM).

With `CCCC(=O)Nc1ccc(C)c2ncccc12`, the MDR1-MDCK efflux ratio was 0.743; the intrinsic clearance, human liver microsomes turned out to be 8.73 mL/min/kg; the intrinsic clearance, rat liver microsomes is 28.1 mL/min/kg; the aqueous solubility was found to be 50.2 µg/mL (≈ 220 µM).

With `COc1cc(CCNC(=O)c2nc3cccc(C)n3c2F)cc(OC)c1`, the intrinsic clearance, human liver microsomes turned out to be 81.6 mL/min/kg; the intrinsic clearance, rat liver microsomes stood at 821 mL/min/kg; the aqueous solubility amounted to 39.5 µg/mL (≈ 111 µM).

Regarding `c1ccc(-n2cc(CNc3ncccn3)cn2)cc1`, the MDR1-MDCK efflux ratio was 0.497; the intrinsic clearance, human liver microsomes amounted to 30.8 mL/min/kg; the intrinsic clearance, rat liver microsomes worked out at 181 mL/min/kg; the aqueous solubility was 41.1 µg/mL (≈ 164 µM).

The molecule `N#CCCn1nc(C(F)(F)F)cc1O` had an aqueous solubility of 23.1 µg/mL (≈ 113 µM).

For `O=C1CC(N2CCCN(c3ccc(C(F)(F)F)cn3)CC2)C(=O)N1c1ccccc1` (centres undefined), the MDR1-MDCK efflux ratio is 0.761; the intrinsic clearance, human liver microsomes is 270 mL/min/kg; the intrinsic clearance, rat liver microsomes is 1280 mL/min/kg.

Take `COc1nc2c(cc1CNC(=O)N1CCC[C@@H]1CO)C(=O)N(C1CCCC1)C2`: the MDR1-MDCK efflux ratio is 78.1; the intrinsic clearance, human liver microsomes was found to be 8.55 mL/min/kg; the intrinsic clearance, rat liver microsomes was found to be 69.1 mL/min/kg.

Turning to `c1ccc(-c2nc(CSc3ccc(-n4cccn4)nn3)cs2)cc1`, the MDR1-MDCK efflux ratio amounted to 0.541; the intrinsic clearance, human liver microsomes was found to be 75.1 mL/min/kg; the intrinsic clearance, rat liver microsomes was found to be 420 mL/min/kg.

For the molecule `CN(C)[C@@H]1CN(C(=O)CCn2cnc3ccccc32)C[C@H]1O`, the MDR1-MDCK efflux ratio was 1.66; the intrinsic clearance, human liver microsomes was 5.49 mL/min/kg; the intrinsic clearance, rat liver microsomes was 30.7 mL/min/kg; the aqueous solubility was determined as 151 µg/mL (≈ 500 µM).

With `Cc1cc(CN2CCN(c3ncccn3)CC2)on1`, the MDR1-MDCK efflux ratio was 0.608; the intrinsic clearance, human liver microsomes was at most 4.74 mL/min/kg; the intrinsic clearance, rat liver microsomes was determined as 91.5 mL/min/kg; the aqueous solubility is 36.7 µg/mL (≈ 141 µM).

As to `CCc1c(-c2ccccc2)[n+]([O-])c2c([n+]1[O-])CCCCC2`, the MDR1-MDCK efflux ratio worked out at 2.95; the intrinsic clearance, human liver microsomes is 8.95 mL/min/kg; the intrinsic clearance, rat liver microsomes stood at 43.4 mL/min/kg.

Regarding `Cc1nn(Cc2cccc(Br)c2)c(C)c1C(=O)O`, the MDR1-MDCK efflux ratio came out at 1.58; the intrinsic clearance, human liver microsomes was at most 4.74 mL/min/kg; the intrinsic clearance, rat liver microsomes is at most 10.7 mL/min/kg; the aqueous solubility turned out to be 51.4 µg/mL (≈ 166 µM).

As to `O=C(CN1CCSC1=O)N1CCN(Cc2sc3ccccc3c2Cl)CC1`, the intrinsic clearance, human liver microsomes is 72.7 mL/min/kg; the intrinsic clearance, rat liver microsomes turned out to be 349 mL/min/kg; the aqueous solubility turned out to be 54.4 µg/mL (≈ 133 µM).

`Cc1nc(CN2CCC(CNC(=O)COc3ccccc3Cl)CC2)c[nH]1`: the MDR1-MDCK efflux ratio was found to be 5.32; the intrinsic clearance, human liver microsomes is at most 4.74 mL/min/kg; the intrinsic clearance, rat liver microsomes was found to be 58.1 mL/min/kg.

In the case of `Cc1noc(C)c1CC(=O)N1CCc2[nH]c3ccc(Br)cc3c2C1`, the MDR1-MDCK efflux ratio is 5.07; the intrinsic clearance, human liver microsomes is 166 mL/min/kg; the intrinsic clearance, rat liver microsomes was 497 mL/min/kg; the aqueous solubility was 1.29 µg/mL (≈ 3.32 µM).

On to `COc1ccccc1C(=O)NCc1nc(C)cc(N2CCCCC2)n1`, for which the MDR1-MDCK efflux ratio is 0.243; the intrinsic clearance, human liver microsomes was determined as 96.3 mL/min/kg; the intrinsic clearance, rat liver microsomes is 1050 mL/min/kg; the aqueous solubility came out at 67 µg/mL (≈ 197 µM).

The molecule `C#CCNC(=O)CN1C(=O)c2ccccc2C1=O` had an aqueous solubility of 38.9 µg/mL (≈ 161 µM).

With `O=C(C1CCC(O)CC1)N1CCCN(c2ccc(F)cc2)CC1` (centres undefined), the MDR1-MDCK efflux ratio is 4.68; the intrinsic clearance, human liver microsomes is 11.9 mL/min/kg; the intrinsic clearance, rat liver microsomes was found to be 206 mL/min/kg; the aqueous solubility came to 80.7 µg/mL (≈ 252 µM).

Take `O=C(Nc1nc2c(s1)COc1ccccc1-2)c1cnc(Cl)c(Cl)c1`: the MDR1-MDCK efflux ratio is 1.02; the intrinsic clearance, human liver microsomes amounted to 33.8 mL/min/kg; the intrinsic clearance, rat liver microsomes turned out to be 279 mL/min/kg; the aqueous solubility stood at 3.7 µg/mL (≈ 9.78 µM).

In turn, `Nc1nccc2ccc(-c3cccc(F)c3)cc12` showed an intrinsic clearance, human liver microsomes of 209 mL/min/kg; an intrinsic clearance, rat liver microsomes of 790 mL/min/kg; an aqueous solubility of 3 µg/mL (≈ 12.6 µM).

In the case of `O=c1c2cccnc2ncn1Cc1ccc2c(c1)CCCC2`, the MDR1-MDCK efflux ratio is 0.68; the intrinsic clearance, human liver microsomes worked out at 25.8 mL/min/kg; the intrinsic clearance, rat liver microsomes came to 711 mL/min/kg.

`Cc1ccc2nc(C)c(C(=O)NOCc3ccccc3)cc2c1`: the MDR1-MDCK efflux ratio was determined as 0.666; the intrinsic clearance, human liver microsomes is 19.3 mL/min/kg; the intrinsic clearance, rat liver microsomes was determined as 308 mL/min/kg; the aqueous solubility turned out to be 20.2 µg/mL (≈ 65.8 µM).

Regarding `CC(C)(O)CNc1nc(Nc2ccnc(C(F)(F)F)c2)nc(-c2cccc(C(F)(F)F)n2)n1`, the MDR1-MDCK efflux ratio amounted to 24.8 and the aqueous solubility stood at 0.14 µg/mL (≈ 0.296 µM).

In the case of `COc1cc2c(cc1OC)CN(C(=O)C1CCCN(C(C)=O)C1)CC2` (centres undefined), the MDR1-MDCK efflux ratio amounted to 57.1; the intrinsic clearance, human liver microsomes is at most 4.74 mL/min/kg; the intrinsic clearance, rat liver microsomes was determined as 19.9 mL/min/kg; the aqueous solubility worked out at 55 µg/mL (≈ 159 µM).

For `Brc1ccc(-c2nnc(Cn3cnc4ccccc43)o2)o1`, the MDR1-MDCK efflux ratio worked out at 0.976; the intrinsic clearance, human liver microsomes is at most 4.74 mL/min/kg; the intrinsic clearance, rat liver microsomes was found to be 41.1 mL/min/kg; the aqueous solubility was found to be 62.7 µg/mL (≈ 182 µM).

For the molecule `CC(C)(C)c1cc(C(=O)CSc2nnnn2-c2ccccc2)cc(C(C)(C)C)c1O`, the intrinsic clearance, human liver microsomes is 26.1 mL/min/kg and the intrinsic clearance, rat liver microsomes was 55.8 mL/min/kg.

For the molecule `CN(C)C(=O)C1(Cc2ccccc2-c2cccc(F)c2)CCN(C(=O)C2CC=CCC2)CC1` (centres undefined), the MDR1-MDCK efflux ratio stood at 1.46; the fraction unbound, human plasma came to 0.00787; the fraction unbound, rat plasma is 0.0139; the intrinsic clearance, human liver microsomes came to 997 mL/min/kg. The molecule further had an intrinsic clearance, rat liver microsomes of 2710 mL/min/kg.

For the molecule `CN(Cc1ccc(CO)cc1)Cc1cc(F)c(F)c(F)c1`, the MDR1-MDCK efflux ratio is 0.425; the intrinsic clearance, human liver microsomes is 54 mL/min/kg; the intrinsic clearance, rat liver microsomes stood at 371 mL/min/kg.

`Cc1nc(NCC(C)(C)c2ccccc2)n(C)n1`: the MDR1-MDCK efflux ratio amounted to 1.07; the intrinsic clearance, human liver microsomes is 10.7 mL/min/kg; the intrinsic clearance, rat liver microsomes came out at 235 mL/min/kg; the aqueous solubility worked out at 36.2 µg/mL (≈ 148 µM).

For `Cc1cc(C(=O)NC2CCN(C(=O)c3cc(C)sc3C)CC2)no1`, the MDR1-MDCK efflux ratio was determined as 1.56; the intrinsic clearance, human liver microsomes is 9.77 mL/min/kg; the intrinsic clearance, rat liver microsomes was determined as 93.7 mL/min/kg; the aqueous solubility turned out to be 61.2 µg/mL (≈ 176 µM).

Take `CO[C@@H]1CC[C@@H](N(C)C(=O)COc2c(C)cccc2C)[C@H]1O`: the MDR1-MDCK efflux ratio worked out at 1.67; the intrinsic clearance, human liver microsomes worked out at 12.1 mL/min/kg; the intrinsic clearance, rat liver microsomes amounted to 162 mL/min/kg.

`CN(C)C(=O)CCNc1ccnc2ccc(Cl)cc12`: the intrinsic clearance, human liver microsomes stood at 6.56 mL/min/kg and the intrinsic clearance, rat liver microsomes is 73.1 mL/min/kg.

With `CN(C[C@@H]1COCCO1)S(=O)(=O)Nc1ccc2ccc3ncc(-c4cnn(C)c4)cc3c(=O)c2c1`, the MDR1-MDCK efflux ratio was 15.5; the intrinsic clearance, human liver microsomes was 44.3 mL/min/kg; the intrinsic clearance, rat liver microsomes was found to be 219 mL/min/kg; the aqueous solubility turned out to be 3.36 µg/mL (≈ 6.78 µM).

On to `Cc1ncsc1C(=O)N1CCCCC1c1nc(N(C)C)ncc1-c1cccc(Cl)c1` (centres undefined), for which the MDR1-MDCK efflux ratio was determined as 1.28; the fraction unbound, human plasma is 0.00826; the fraction unbound, rat plasma amounted to 0.0105; the intrinsic clearance, human liver microsomes turned out to be 236 mL/min/kg. Besides, the intrinsic clearance, rat liver microsomes was determined as 1200 mL/min/kg and the aqueous solubility was 18.2 µg/mL (≈ 41.2 µM).

In the case of `N#CCCN(C(=O)c1cccs1)C12CC3CC(CC(C3)C1)C2`, the MDR1-MDCK efflux ratio is 0.531; the intrinsic clearance, human liver microsomes amounted to 262 mL/min/kg; the intrinsic clearance, rat liver microsomes is 2310 mL/min/kg; the aqueous solubility was 7.2 µg/mL (≈ 22.9 µM).

Consider `Clc1snnc1CN1CCCN(c2nc3ccccc3[nH]2)CC1`, for which the MDR1-MDCK efflux ratio stood at 13.1; the intrinsic clearance, human liver microsomes amounted to 105 mL/min/kg; the intrinsic clearance, rat liver microsomes stood at 1440 mL/min/kg; the aqueous solubility is 28.2 µg/mL (≈ 80.7 µM).

In the case of `O=C1Nc2ccc(Cl)cc2[C@@](C#CC2CC2)(C(F)(F)F)O1`, the aqueous solubility amounted to 15.3 µg/mL (≈ 48.4 µM).

For the molecule `N#Cc1c(O)nc2scc(-c3ccc(-c4ccccc4O)cc3)c2c1O`, the MDR1-MDCK efflux ratio turned out to be 1.19; the intrinsic clearance, human liver microsomes was determined as 11.2 mL/min/kg; the intrinsic clearance, rat liver microsomes was at most 10.7 mL/min/kg; the aqueous solubility amounted to 58.8 µg/mL (≈ 163 µM).

In the case of `Cc1ccc2nc3c(c(C(=O)NCc4cnn(C)c4)c2c1)CCCC3`, the MDR1-MDCK efflux ratio was 17.8; the intrinsic clearance, human liver microsomes amounted to 36.9 mL/min/kg; the intrinsic clearance, rat liver microsomes is 74.1 mL/min/kg; the aqueous solubility came out at 56.3 µg/mL (≈ 168 µM).
